# US9963451B2, “Fused ring pyrimidine compound and pest control agent containing the same” (Mitsui Chemicals Agro, Inc., priority 2013, dated 2018)
# Structures can show the parent of a compound that is named as a salt. Where two headings read alike, the source gives them in different places.
# How the values were obtained:
# Type in all cases: in vivo
# [1] = system: Laodelphax striatellus; assay: whole plant or invertebrate; conditions: for pest or weed control at 3 ppm / pest or weed control at 1 ppm: Laodelphax striatellus, in Oryza sativa, 144 h, read-out: Insect death ratio (%)
# Method: Insecticidal Test Against Laodelphax striatellus
# A chemical solution diluted to have a pre-determined concentration was sprayed to young rice plant (breed: Koshihikari) followed by air drying. Then, it was added to a glass test tube (diameter of 3 cm and height of 10 cm) added with water together with ten 3-stage larvae of Laodelphax striatellus. The tube was then covered. The number of living insects was determined after 6 days and the dead insect ratio was calculated. There were two series, i.e., 10 insects per group. Meanwhile, in Table 29, when combination of two types of test chemicals are used (i.e., A and B), the combination of the two types was described as A+B, and in the concentration column (ppm), it was described as concentration of A+concentration of B.
# [2] = system: Pyricularia oryzae; assay: whole plant or invertebrate
# [3] = system: Callosobruchus chinensis; assay: Test Example 5: insecticidal test against Callosobruchus chinensis (petri dish dry film); conditions: 24 h, read-out: insect death ratio
# Method: Insecticidal Test Against Callosobruchus chinensis
# 1 ml of acetone solution in which a test compound had been diluted at a predetermined concentration was added dropwise to a petri dish having a diameter of 9 cm, and air dried, and then ten adults of Callosobruchus chinensis were released and the petri dish was covered. They were left to stand in an incubator at 25° C., and the numbers of living insects and dead insects were examined after 1 day. There was no series.
# [4] = system: Chilo suppressalis; assay: Test Example 10: insecticidal test against Chilo suppressalis (rice stem dip, single and combined chemicals); conditions: after 6 days
# Method: Insecticidal Test Against Chilo suppressalis
# A stem part was cut from a rice plant (breed: Koshihikari) cultivated in water and it was immersed in a chemical solution which has been diluted to have a pre-determined concentration. After air drying, it was put into a 9 cm polyethylene cup having a water-wetted filter paper laid on the bottom thereof, and 3-stage larvae of Chilo suppressalis were released and covered. They were left to stand in an incubator at 25° C., and the numbers of living insects and dead insects were examined after 6 days. There were two series, i.e., 5 insects per group. Meanwhile, in Table 30, when combination of two types of test chemicals are used (i.e., A and B), the combination of the two types was described as A+B, and in the concentration column (ppm), it was described as concentration of A+concentration of B.
# [5] = system: Plutella xylostella; assay: Test Example 4: insecticidal test against Plutella xylostella (cabbage leaf dip); conditions: foliar, 144 h, read-out: insect death ratio
# Method: Insecticidal Test Against Plutella xylostella
# A piece of a cabbage leaf was immersed for 30 seconds in a chemical solution in which the test compound had been added at a predetermined concentration, and air dried, and then put into a 7 cm polyethylene cup having a filter paper laid on the bottom thereof, and five 3-stage larvae of Plutella xylostella were released. They were left to stand in an incubator at 25° C., and the numbers of living insects and dead insects were examined after 6 days. There was no series.
# [6] = Pyricularia oryzae, 168 h, read-out: Rice blast control value
# [7] = Chilo suppressalis, 144 h, 1 ppm, read-out: Insect death ratio (%)
# [8] = Chilo suppressalis, 144 h, read-out: Insect death ratio (%)
# [9] = concentration of 1000 ppm, cabbage leaf dip, 3-stage larvae, 25° C., after 6 days
compound,measurement,setting,value
"CC[S+]([O-])c1c(C#N)nn(-c2c(Cl)cc(C(F)(F)F)cc2Cl)c1N (stereo not drawn) [Ethiprole, ethiprole]",pest or weed control at 3 ppm,"[1]; 3 ppm, after 6 days",20%
"C=CCOC1=NS(=O)(=O)c2ccccc21 [Probenazole, probenazole]",pest or weed control at 12 ppm,[2]; [6],96%
Cc1cc(=O)n2nc(C(F)(F)F)cc2n1Cc1cnc(Cl)c(F)c1 [compound 253],pest or weed control at 1000 ppm,[3],≥ 70%
CSc1nc2n(Cc3cnc(Cl)c(F)c3)c(C)cc(=O)n2n1 [compound 306],pest or weed control at 1000 ppm,[3],≥ 70%
Cc1cc(=O)n2nc(S(=O)(=O)CC(F)(F)F)nc2n1Cc1ccc(Cl)nc1 [compound 190],pest or weed control at 1000 ppm,[3],≥ 70%
"CNC(=O)c1cc(C#N)cc(C)c1NC(=O)c1cc(Br)nn1-c1ncccc1Cl [Cyantraniliprole, cyantraniliprole]",pest or weed control at 1 ppm,[4]; [7],80%
spinetoram,Insect death ratio (%),[4]; 1 ppm,100%
Cc1cc(=O)n2nc(OCC(F)(F)F)nc2n1Cc1ccc(Cl)nc1 [compound 46],pest or weed control at 1000 ppm,[3],≥ 70%
CCc1c(C)n(Cc2ccc(Cl)nc2)c2nc(SC)nn2c1=O [compound 25],pest or weed control at 1000 ppm,[5],≥ 70%
Cc1cc(=O)n2nc(S(C)(=O)=NC#N)nc2n1Cc1ccc(Cl)nc1 (stereo not drawn) [compound 76],pest or weed control at 1000 ppm,[3],≥ 70%
"C[C@@H](NC(=O)C(C#N)C(C)(C)C)c1ccc(Cl)cc1Cl (stereo partly drawn) [Diclocymet, diclocymet]",pest or weed control at 1.5 ppm,[2]; [6],95%
"CSc1nc2n(Cc3ccc(Cl)nc3)c(C)c/c(=N\O)n2n1 [compound 121, 4-((6-chloropyridin-3-yl)methyl)-5-methyl-2-(methylthio)-[1,2,4]triazolo[1,5-a]pyrimidin-7(4H)-oneoxime]",pest or weed control at 1000 ppm,[3],≥ 70%
CC[S+]([O-])c1cc2n(Cc3ccc(Cl)nc3)c(C)cc(=O)n2n1 (stereo not drawn) [compound 244],pest or weed control at 1000 ppm,[3],≥ 70%
CSc1cc2n(Cc3cnc(Cl)nc3)c(C)cc(=O)n2n1 [compound 299],pest or weed control at 1000 ppm,[3],≥ 70%
CSc1cc2n(Cc3cnc(Cl)c(F)c3)c(C)cc(=O)n2n1 [compound 307],pest or weed control at 1000 ppm,[3],≥ 70%
"CSc1nc2n(Cc3ccc(Cl)nc3)c(C)cc(=S)n2n1 [compound 24, 4-((6-chloropyridin-3-yl)methyl)-5-methyl-2-(methylthio)-[1,2,4]triazolo[1,5-a]pyrimidin-7(4H)-thione]",pest or weed control at 1000 ppm,[5],≥ 70%
"Cc1cc(=O)n2nc(S(C)(=O)=O)nc2n1Cc1ccc(Cl)nc1 [compound 10, 4-((6-chloropyridin-3-yl)methyl)-5-methyl-2-(methylsulfonyl)-[1,2,4]triazolo[1,5-a]pyrimidin-7(4H)-one]",pest or weed control at 1000 ppm,[3],≥ 70%
CN(C(=O)c1ccc(F)cc1)c1cccc(C(=O)Nc2c(I)cc(C(F)(C(F)(F)F)C(F)(F)F)cc2C(F)(F)F)c1F [DD-2],pest or weed control at 0.1 ppm,[4]; [8],100%
Cc1cc(=O)n2nc(C(F)(F)F)cc2n1Cc1cnc(Cl)cc1Cl [compound 248],pest or weed control at 1000 ppm,[3],≥ 70%
Cc1cc(=O)n2nc([S+](C)[O-])nc2n1Cc1ccc(Cl)nc1 (stereo not drawn) [compound 26],pest or weed control at 1000 ppm,[3],≥ 70%
"CC(C)N1C(=O)N(c2ccccc2)CS/C1=N\C(C)(C)C [Buprofezin, buprofezin]",pest or weed control at 1 ppm,[1]; after 6 days,70%
"CC(=O)Oc1c(C)c(C)nc2c(F)cc(C(C)(C)C)cc12 [Tebufloquin, tebufloquin]",Rice blast control value,"[2]; 100 ppm, spots counted 7 days later",98
Cc1cc(=O)n2nc(-c3ccccc3F)nc2n1Cc1ccc(Cl)nc1 [compound 28],pest or weed control at 1000 ppm,[5],≥ 70%
"CN(C)C(CSC(N)=O)CSC(N)=O [Cartap, Cartap hydrochloride]",pest or weed control at 300 ppm,"[4]; Chilo suppressalis, 144 h, 300 ppm, read-out: Insect death ratio (%)",90%
"Cc1cccc2sc3nncn3c12 [Tricyclazole, tricyclazole]",pest or weed control at 2 ppm,[2]; [6],98%
same,pest or weed control at 200 ppm,[2]; [6],97%
"Cc1cc(C(F)(C(F)(F)F)C(F)(F)F)ccc1NC(=O)c1cccc(I)c1C(=O)NC(C)(C)CS(C)(=O)=O [Flubendiamide, flubendiamide]",pest or weed control at 1 ppm,[4]; [7],80%
"COP(=O)(NC(C)=O)SC (stereo not drawn) [Acephate, acephate]",pest or weed control at 3 ppm,[1],20%
Cc1cc(=O)n2nc(OC(C)c3ccc(C(F)(F)F)cc3)nc2n1Cc1ccc(Cl)nc1 (stereo not drawn) [compound 106],pest or weed control at 1000 ppm,[5]; [9],≥ 70%
O=C(Nc1c(I)cc(C(F)(C(F)(F)F)C(F)(F)F)cc1C(F)(F)F)c1cccc(NC(=O)c2cccnc2Cl)c1 [DD-3],pest or weed control at 0.1 ppm,[4]; [8],100%
"N#Cc1nn(-c2c(Cl)cc(C(F)(F)F)cc2Cl)c(N)c1[S+]([O-])C(F)(F)F (stereo not drawn) [Fipronil, fipronil]",pest or weed control at 1 ppm,[1]; after 6 days,70%
"COc1nc2n(Cc3ccc(Cl)nc3)c(C)cc(=O)n2n1 [compound 45, 4-((6-chloropyridin-3-yl)methyl)-2-methoxy-5-methyl-[1,2,4]triazolo[1,5-a]pyrimidin-7(4H)-one]",pest or weed control at 1000 ppm,[3],≥ 70%
spinosad,Insect death ratio (%),[4]; 1 ppm,70%
CCSc1cc2n(Cc3ccc(Cl)nc3)c(C)cc(=O)n2n1 [compound 243],pest or weed control at 1000 ppm,[5],≥ 70%
"CCOc1ccc(C(C)(C)COCc2cccc(Oc3ccccc3)c2)cc1 [Ethofenprox, ethofenprox]",Insect death ratio (%),"[1]; 30 ppm, after 6 days",40%
same,Insect death ratio (%),[4]; 100 ppm,100%
Cc1cc(=O)n2nc(SCc3cccc(C(F)(F)F)c3)nc2n1Cc1ccc(Cl)nc1 [compound 16],pest or weed control at 1000 ppm,[5]; [9],≥ 70%
"CC(C)OC(=O)C(C(=O)OC(C)C)=C1SCCS1 [Isoprothiolane, isoprothiolane]",pest or weed control at 6 ppm,[2]; [6],97%
Cc1cc(=O)n2nc(C(F)F)cc2n1Cc1ccc(Cl)nc1 [compound 241],pest or weed control at 1000 ppm,[5],≥ 70%
CSc1cc2n(Cc3ccc(Cl)nc3)c(C)c(F)c(=O)n2n1 [compound 237],pest or weed control at 1000 ppm,[5],≥ 70%
"Cc1cc(O)no1 [Hydroxyisoxazole, hydroxyisoxazole]",Insect death ratio (%),"[1]; 600 ppm, after 6 days",0%
Cc1cc(=O)n2nc(SCCCC(F)(F)F)nc2n1Cc1ccc(Cl)nc1 [compound 23],pest or weed control at 1000 ppm,[5],≥ 70%
CSc1cc2n(Cc3ccc(Cl)nc3)c(C)c(C)c(=O)n2n1 [compound 236],pest or weed control at 1000 ppm,[5],≥ 70%
Cc1cc(=O)n2nc(C(C)(F)F)nc2n1Cc1ccc(Cl)nc1 [compound 59],pest or weed control at 1000 ppm,[3],≥ 70%
CCSc1cc2n(Cc3cnc(Cl)c(F)c3)c(C)cc(=O)n2n1 [compound 252],pest or weed control at 1000 ppm,[3],≥ 70%
CC1(C)N=C(c2cnc3ccccc3c2)c2ccccc2C1(F)F [EE-1],pest or weed control at 50 ppm,[2]; [6],97%
Cc1cc(=O)n2nc([S+]([O-])CC(F)(F)F)nc2n1Cc1ccc(Cl)nc1 (stereo not drawn) [compound 189],pest or weed control at 1000 ppm,[5],≥ 70%
"CNC(=O)c1cc(Cl)cc(C)c1NC(=O)c1cc(Br)nn1-c1ncccc1Cl [Chlorantraniliprole, chlorantraniliprole]",pest or weed control at 1 ppm,[4]; [7],80%
Cc1cc(=O)n2nc(SCCC(F)(F)F)nc2n1Cc1ccc(Cl)nc1 [compound 22],pest or weed control at 1000 ppm,[5],≥ 70%
CC1(C)N=C(c2cnc3ccccc3c2)c2cccc(F)c2C1(C)C [EE-2],pest or weed control at 50 ppm,[2]; [6],95%
CN(C(=O)c1ccccc1)c1cccc(C(=O)Nc2c(Br)cc(C(F)(C(F)(F)F)C(F)(F)F)cc2C(F)(F)F)c1F [DD-1],pest or weed control at 0.1 ppm,[4]; [8],90%
"CNC(=O)/C(=N/OC)c1ccccc1CO/N=C(C)/C(=N/OC)C(/C)=N/OC [Orysastrobin, orysastrobin]",Rice blast control value,"[2]; 3.5 ppm, spots counted 7 days later",95
CCSc1nc2n(Cc3ccc(Cl)nc3)c(C)cc(=O)n2n1 [compound 29],pest or weed control at 1000 ppm,[5],≥ 70%
"Cc1ccc(C(=O)NC[C@@H](NC(=O)OCC(F)(F)F)C(C)C)cc1 [Tolprocarb, tolprocarb]",Rice blast control value,[2]; in vivo,97
CC1(C)N=C(c2cnc3ccccc3c2)c2cccc(F)c2C1(F)F [EE-3],pest or weed control at 50 ppm,[2]; [6],97%
Cc1cc(=O)n2nc(-n3cccn3)nc2n1Cc1ccc(Cl)nc1 [compound 80],pest or weed control at 1000 ppm,[3],≥ 70%
"N#Cc1ccccc1NC(=O)c1snc(Cl)c1Cl [Isotianil, isotianil]",Rice blast control value,"[2]; 1 ppm, spots counted 7 days later",97
